Laboratory results reported in patent US20230364032A1, “USE OF 2-HOBA TO TREAT ATHEROSCLEROSIS” (Vanderbilt University, priority 2020, published 2023).
“Also recorded” adds a separate entry of the source.

How the values were obtained:
MDA-HDL = assay: MDA adducts in isolated HDL by ELISA; assay type: in vivo, mouse; conditions: Ldlr−/− mice
Method: (§1) FIGS. 7A-7G show the effects of 2-HOBA on MDA-HDL adducts and HDL function. (7A) The levels or MDA adducts were measured by ELISA in HDL isolated from Ldlr mice treated as described in FIG. 1. Data are presented as mean±SEM (N=8 pet group), *** p<0.001, One-way ANOVA with Bonferroni's post hoc test. (7B) Western blots of apoAl and MDA-apoAl in HDL isolated from plasma by immunoprecipitation using primary anti-apoAl antibody. Ldlf mice were treated as described In FIG. 1 and apoAl and MDA-apoAl from Ldlr mice consuming a chow diet are included f0t comparison. (7C) Quantitation using lmageJ software of the mean density ratio (arbitrary units) of MDA-apoAl to apoAl detected by Western blotting (7B). (7D The HDL was isolated from the plasma of Ld/r-mice consuming a western diet for 16 weeks and treated with 2-HOBA or 4-HOBA or vehicle. Cholesterol enriched macrophages were incubated for 24 h with HDL (25 μg protein/ml). and the % reduction in cellular cholesterol content measured. Data presented as mean±SEM. N=7 per group, *p<0.05.**p<0.01, One-way ANOVA with Bonferroni's post hoc test (7E) The MDA adducts were measured by ELISA in HDL isolated from control or FH subjects before and after LDL apheresis. N=7 or 8, ***p<0.001, One-way ANOVA with Bonferroni's post hoc test. (7F) The MDA-Lysyl crosslink content in HDL from control or FH subjects (n=6 per group), p=0.02, Mann-Whitney test (7G) The capacity of HDL from control or FH subjects pre and post LDL apheresis (n=7 per group) to reduce the cholesterol content of apoE macrophages.
The study was approved by the Vanderbilt University Institutional Review Board (IRB), and all participants gave their written informed consent. The human blood samples from patients with severe FH, who were undergoing LDL apheresis, and healthy controls were obtained using an IRB approved protocol. […] After stopping the reaction, the O.D. was measured at 450 nm wavelength. MDA-ApoAI was detected in mouse plasma by immunoprecipitation of ApoAI and western blotting. […] Proteins were visualized and quantitated by Odyssey 3.0 Quantification software (LI-COR).

MDA = assay: Plasma MDA content by TBARS assay; assay type: in vivo, mouse; conditions: Ldlr−/− mice, western diet 16 weeks; versus 4-HOBA or vehicle
Method: FIG. 21A-D show the effects of 2-HOBA on plasma and LDL MDA adducts in hypercholesterolemic Ldlr^−/− mice. (20A) The MDA content in plasma from Ldlr^−/− mice consuming a Western diet for 16 weeks and treated with 2-HOBA, 4-HOBA, or vehicle was measured by TBARS Assay(*p<0.05, **p<0.01). (20B) The levels of MDA adducts were measured from LDL isolated from the Ldlr^−/− mice by ELISA. N=10 per group, ***p<0.001. (20C) LDL was isolated from control and FH subjects (n=6) pre and post LDL apheresis and the MDA adduct content was measured by ELISA. (20D) LDL was isolated from 2-HOBA, 4-HOBA, or vehicle treated hypercholesterolemic Ldlr^−/− mice. WT peritoneal macrophages were incubated for 24 hrs with the LDL and the cellular cholesterol content was measured as described in methods. (20A-D) One-way ANOVA with Bonferroni's post hoc test).

[1] = test system: Apoe−/− macrophage foam cells; assay: Capacity of HDL from treated mice to reduce macrophage cholesterol; assay type: cell-based, mouse; conditions: for efficiency of HDL at reducing cholesterol stores in Apoe−/− macrophage foam cells: HDL isolated from treated Ldlr−/− mice, 25 μg protein/ml, 24 h
Method: as §1
HDL was isolated from mouse plasma using HDL Purification Kit (Cell BioLabs, Inc.) following the manufacturer's protocol. Briefly, apoB containing lipoproteins and HDL were sequentially precipitated with dextran sulfate. The HDL was then resuspended and washed. After removing the dextran sulfate, the HDL was dialyzed against PBS. […] Cellular cholesterol was measured before and after incubation with HDL using an enzymatic cholesterol assay as described^61.

[2] = test system: MDA- and IsoLG-lysyl adducts; assay: Aorta dilysyl-MDA crosslinks and IsoLG-lysyl adducts by LC/MS/MS; assay type: in vivo, mouse; conditions: Ldlr−/− mice
Method: Isolation and LC/MS measurement of isolevuglandin-lysyl-lactam (IsoLG-Lys) adducts from aorta of 2-HOBA and 4-HOBA treated Ldlr^−/− mice were performed using a Waters Xevo-TQ-Smicro triple quadrupole mass spectrometer as previously described^69.
Samples (around 1 mg of protein) were digested with proteases as previously described for lysyl-lactam adducts^70. Five nanograms of ^13C6-dilysyl-MDA crosslink standard were added to each cell sample and dilysyl-MDA crosslinks were purified as previously described^71. The dilysyl-MDA crosslink was quantified by isotopic dilution by LC-EST/MS/MS as previously described^71.

## NCc1ccccc1O [2-HOBA, 2-hydroxybenzylamine]
MDA-HDL
  MDA content in HDL: reduced
MDA-HDL; compared to 4-HOBA
  reduction of MDA adduct content of isolated HDL (ELISA): 56%
MDA-HDL; compared to vehicle
  reduction of MDA adduct content of isolated HDL (ELISA): 57%
MDA
  plasma levels of MDA: decreased
[1]; HDL from treated Ldlr−/− mice
  capacity of mouse HDL to reduce macrophage cholesterol stores: increased; also recorded: enhanced capacity
[1]; versus 4-HOBA treated mice
  efficiency of HDL at reducing cholesterol stores in Apoe−/− macrophage foam cells: 1.7 fold
[1]; versus vehicle treated mice
  efficiency of HDL at reducing cholesterol stores in Apoe−/− macrophage foam cells: 2.2 fold
[2]
  MDA and IsoLG adduct content of atherosclerotic lesions/aortas: decreases; also recorded: markedly reduced
[2]; compared to 4-HOBA treatment
  decrease of whole aorta IsoLG-lysyl adduct content: 23%
  decrease of whole aorta MDA-lysyl adduct content: 59%
